According to ChEMBL document CHEMBL1153280, “Synthesis and in vitro activity of dicationic bis-benzimidazoles as a new class of anti-MRSA and anti-VRE agents” (2009):
≈ marks a conversion by molar mass, not a printed value.

How the values were obtained:
Assay type in all cases: functional
[1] = system: Bacteroides fragilis; assay: Antibacterial activity against Bacteroides fragilis ATCC 23745 by NCCLS method
[2] = system: Staphylococcus epidermidis; assay: Antibacterial activity against methicillin-resistant Staphylococcus epidermidis ATCC 51625 by NCCLS method
[3] = system: Staphylococcus aureus; assay: Antibacterial activity against multidrug-resistant Staphylococcus aureus BAA-39 by NCCLS method
[4] = system: Staphylococcus epidermidis; assay: Antibacterial activity against Staphylococcus epidermidis ATCC 12228 by NCCLS method
[5] = system: Enterococcus faecium; assay: Antibacterial activity against vancomycin-resistant Enterococcus faecium ATCC 700221 by NCCLS method
[6] = system: Streptococcus pneumoniae; assay: Antibacterial activity against Streptococcus pneumoniae ATCC 6301 by NCCLS method
[7] = system: Bacillus cereus; assay: Antibacterial activity against Bacillus cereus ATCC 11778 by NCCLS method
[8] = system: Staphylococcus aureus; assay: Antibacterial activity against methicillin-resistant Staphylococcus aureus ATCC 33591 by NCCLS method
[9] = system: Clostridium perfringens; assay: Antibacterial activity against Clostridium perfringens ATCC 10388 by NCCLS method
[10] = system: Staphylococcus aureus; assay: Antibacterial activity against Staphylococcus aureus ATCC 29213 by NCCLS method
[11] = system: Bacillus subtilis; assay: Antibacterial activity against Bacillus subtilis ATCC 23857 by NCCLS method
[12] = system: Enterococcus faecalis; assay: Antibacterial activity against vancomycin-resistant Enterococcus faecalis ATCC 51575 by NCCLS method

Row | SMILES | MIC [1] [µg/mL] | MIC [2] [µg/mL] | MIC [3] [µg/mL] | MIC [4] [µg/mL] | MIC [5] [µg/mL] | MIC [6] [µg/mL] | MIC [7] [µg/mL] | MIC [8] [µg/mL] | MIC [9] [µg/mL] | MIC [10] [µg/mL] | MIC [11] [µg/mL] | MIC [12] [µg/mL]
1 | CCCCNC(=N)c1ccc2[nH]c(-c3ccc(CCc4ccc(-c5nc6cc(C(=N)NCCCC)ccc6[nH]5)cc4)cc3)nc2c1 | 32 (≈ 52.4 µM) | 0.5 (≈ 0.819 µM) | 4 (≈ 6.55 µM) | 0.25 (≈ 0.409 µM) | 2 (≈ 3.27 µM) | 1 (≈ 1.64 µM) | 4 (≈ 6.55 µM) | 2 (≈ 3.27 µM) | 0.5 (≈ 0.819 µM) | 4 (≈ 6.55 µM) | 1 (≈ 1.64 µM) | 32 (≈ 52.4 µM)
2 | CC(C)NC(=N)c1ccc(CCc2ccc(-c3nc4cc(C(=N)NC(C)C)ccc4[nH]3)cc2)cc1 | 32 (≈ 68.6 µM) | 1 (≈ 2.14 µM) | 8 (≈ 17.1 µM) | 0.25 (≈ 0.536 µM) | 1 (≈ 2.14 µM) | 0.12 (≈ 0.257 µM) | 0.5 (≈ 1.07 µM) | 4 (≈ 8.57 µM) | > 32 | 4 (≈ 8.57 µM) | 1 (≈ 2.14 µM) | 2 (≈ 4.29 µM)
3 | N=C(c1ccc2[nH]c(-c3ccc(CCc4ccc(-c5nc6cc(C(=N)N7CCCC7)ccc6[nH]5)cc4)cc3)nc2c1)N1CCCC1 | 2 (≈ 3.3 µM) | 0.25 (≈ 0.412 µM) | 0.5 (≈ 0.824 µM) | 0.25 (≈ 0.412 µM) | 2 (≈ 3.3 µM) | > 32 | 1 (≈ 1.65 µM) | 0.25 (≈ 0.412 µM) | 2 (≈ 3.3 µM) | 0.5 (≈ 0.824 µM) | 2 (≈ 3.3 µM) | 16 (≈ 26.4 µM)
4 | N=C(NC1CC1)c1ccc2[nH]c(-c3ccc(CCc4ccc(-c5nc6cc(C(=N)NC7CC7)ccc6[nH]5)cc4)cc3)nc2c1 | 32 (≈ 55.3 µM) | 0.25 (≈ 0.432 µM) | 16 (≈ 27.6 µM) | 0.12 (≈ 0.207 µM) | 1 (≈ 1.73 µM) | < 0.06 | 0.25 (≈ 0.432 µM) | 8 (≈ 13.8 µM) | 1 (≈ 1.73 µM) | 8 (≈ 13.8 µM) | 1 (≈ 1.73 µM) | 32 (≈ 55.3 µM)
5 | CN[C@H](CC(C)C)C(=O)N[C@H]1C(=O)N[C@@H](CC(N)=O)C(=O)N[C@H]2C(=O)N[C@H]3C(=O)N[C@H](C(=O)N[C@H](C(=O)O)c4cc(O)cc(O)c4-c4cc3ccc4O)[C@H](O)c3ccc(c(Cl)c3)Oc3cc2cc(c3O[C@@H]2O[C@H](CO)[C@@H](O)[C@H](O)[C@H]2O[C@H]2C[C@](C)(N)[C@H](O)[C@H](C)O2)Oc2ccc(cc2Cl)[C@H]1O [VANCOMYCIN] | 4 (≈ 2.76 µM) | – | – | – | > 64 | 1 (≈ 0.69 µM) | – | – | 0.12 (≈ 0.0828 µM) | – | 0.12 (≈ 0.0828 µM) | > 64
6 | CCC(C)NC(=N)c1ccc2[nH]c(-c3ccc(CCc4ccc(-c5nc6cc(C(=N)NC(C)CC)ccc6[nH]5)cc4)cc3)nc2c1 (stereo not drawn) | 2 (≈ 3.27 µM) | 0.12 (≈ 0.196 µM) | 0.5 (≈ 0.819 µM) | < 0.06 | 0.5 (≈ 0.819 µM) | 0.12 (≈ 0.196 µM) | 0.5 (≈ 0.819 µM) | 0.25 (≈ 0.409 µM) | 0.5 (≈ 0.819 µM) | 1 (≈ 1.64 µM) | 0.25 (≈ 0.409 µM) | 2 (≈ 3.27 µM)
7 | CC(C)NC(=N)c1ccc2[nH]c(-c3ccc(CCc4ccc(-c5nc6cc(C(=N)NC(C)C)ccc6[nH]5)cn4)cc3)nc2c1 | 16 (≈ 27.4 µM) | 4 (≈ 6.85 µM) | 8 (≈ 13.7 µM) | 2 (≈ 3.43 µM) | 16 (≈ 27.4 µM) | 8 (≈ 13.7 µM) | 8 (≈ 13.7 µM) | 8 (≈ 13.7 µM) | 0.5 (≈ 0.857 µM) | 16 (≈ 27.4 µM) | 32 (≈ 54.8 µM) | 4 (≈ 6.85 µM)
8 | CC(C)NC(=N)c1ccc2[nH]c(-c3ccc(CCc4ccc(-c5nc6cc(C(=N)NC(C)C)ccc6[nH]5)s4)cc3)nc2c1 | 4 (≈ 6.79 µM) | 0.12 (≈ 0.204 µM) | 0.5 (≈ 0.849 µM) | 0.12 (≈ 0.204 µM) | – | – | 0.25 (≈ 0.425 µM) | 0.5 (≈ 0.849 µM) | 0.25 (≈ 0.425 µM) | 1 (≈ 1.7 µM) | 0.5 (≈ 0.849 µM) | 0.5 (≈ 0.849 µM)
9 | CC(C)NC(=N)c1ccc2[nH]c(-c3ccc(CCc4cc(-c5nc6cc(C(=N)NC(C)C)ccc6[nH]5)cs4)cc3)nc2c1 | 1 (≈ 1.7 µM) | 0.25 (≈ 0.425 µM) | 1 (≈ 1.7 µM) | – | 0.25 (≈ 0.425 µM) | 0.12 (≈ 0.204 µM) | 0.25 (≈ 0.425 µM) | 0.25 (≈ 0.425 µM) | 0.25 (≈ 0.425 µM) | 1 (≈ 1.7 µM) | 0.5 (≈ 0.849 µM) | 1 (≈ 1.7 µM)
10 | O=C(O)c1cn(C2CC2)c2cc(N3CCNCC3)c(F)cc2c1=O [CIPROFLOXACIN] | 0.5 (≈ 1.51 µM) | ≤ 0.12 | 8 (≈ 24.1 µM) | ≤ 0.12 | > 64 | – | ≤ 0.12 | ≤ 0.12 | – | 0.5 (≈ 1.51 µM) | ≤ 0.12 | 0.5 (≈ 1.51 µM)
11 | N=C(NC1CCCC1)c1ccc2[nH]c(-c3ccc(CCc4ccc(-c5nc6cc(C(=N)NC7CCCC7)ccc6[nH]5)cc4)cc3)nc2c1 | > 32 | 0.12 (≈ 0.189 µM) | 1 (≈ 1.58 µM) | < 0.06 | 0.25 (≈ 0.394 µM) | 0.25 (≈ 0.394 µM) | 0.5 (≈ 0.788 µM) | 0.5 (≈ 0.788 µM) | 4 (≈ 6.3 µM) | 1 (≈ 1.58 µM) | 1 (≈ 1.58 µM) | 2 (≈ 3.15 µM)
12 | COc1ccc(CCc2ccc(-c3nc4ccc(C(=N)NC(C)C)cc4[nH]3)cc2)cc1 | > 32 | 4 (≈ 9.7 µM) | 8 (≈ 19.4 µM) | 4 (≈ 9.7 µM) | 8 (≈ 19.4 µM) | 8 (≈ 19.4 µM) | 4 (≈ 9.7 µM) | 4 (≈ 9.7 µM) | 16 (≈ 38.8 µM) | 4 (≈ 9.7 µM) | 4 (≈ 9.7 µM) | 32 (≈ 77.6 µM)
13 | N=C(N)c1ccc2[nH]c(-c3ccc(CCc4ccc(-c5nc6cc(C(=N)N)ccc6[nH]5)cc4)cc3)nc2c1 | > 32 | 32 (≈ 64.2 µM) | > 32 | 4 (≈ 8.02 µM) | 32 (≈ 64.2 µM) | > 32 | > 32 | > 32 | > 32 | > 32 | 32 (≈ 64.2 µM) | > 32
14 | CC(C)NC(=N)c1ccc2[nH]c(-c3ccc(CCc4ccc(-c5nc6cc(C(=N)NC(C)C)ccc6[nH]5)cc4)cc3)nc2c1 | 0.5 (≈ 0.858 µM) | 0.125 (≈ 0.214 µM) | 0.5 (≈ 0.858 µM) | < 0.06 | 0.12 (≈ 0.206 µM) | < 0.06 | 0.12 (≈ 0.206 µM) | 0.25 (≈ 0.429 µM) | 0.25 (≈ 0.429 µM) | 0.25 (≈ 0.429 µM) | 0.12 (≈ 0.206 µM) | 0.25 (≈ 0.429 µM)
15 | c1cc(-c2nc3cc(C4=NCCN4)ccc3[nH]2)ccc1CCc1ccc(-c2nc3cc(C4=NCCN4)ccc3[nH]2)cc1 | > 64 | > 64 | > 64 | > 64 | > 64 | > 64 | > 64 | > 64 | > 64 | > 64 | > 64 | > 64
16 | CC(C)NC(=N)c1ccc2[nH]c(-c3ccc(CCc4ccc(-c5nc6cc(C(=N)NC(C)C)ccc6[nH]5)nc4)cc3)nc2c1 | 32 (≈ 54.8 µM) | 1 (≈ 1.71 µM) | 8 (≈ 13.7 µM) | 0.25 (≈ 0.428 µM) | 1 (≈ 1.71 µM) | 0.12 (≈ 0.206 µM) | 0.5 (≈ 0.857 µM) | 4 (≈ 6.85 µM) | 8 (≈ 13.7 µM) | 4 (≈ 6.85 µM) | 1 (≈ 1.71 µM) | 2 (≈ 3.43 µM)
17 | CC1(C)S[C@@H]2[C@H](NC(=O)Cc3ccccc3)C(=O)N2[C@H]1C(=O)O [PENICILLIN G] | 4 (≈ 12 µM) | 32 (≈ 95.7 µM) | > 32 | 32 (≈ 95.7 µM) | > 32 | < 0.06 | > 4 | > 32 | ≤ 0.06 | 1 (≈ 2.99 µM) | < 0.06 | 4 (≈ 12 µM)
